Experimental data published in patent US11560370B1, “5-membered heteroaryl carboxamide compounds for treatment of HBV” (Assembly Biosciences, Inc., priority 2018, dated 2023).

Test system: HBV
Test: Viral production from HepAD38 cells, viral load by qPCR of HBV core sequence
Type: cell-based
Conditions: 5 days, supernatant HBV DNA by qPCR, read-out: Viral Load EC50 Activity range
Procedure: Assay Measuring Activity of Test Compounds on Viral Production from HepAD38 Cells
HepAD38 cells grown in a T-150 flask (Corning, cat #: 430825) with Growth Medium (DMEM/F12 (1:1) (Hyclone, cat #: SH30023.02), 1× Pen/Strep (Invitrogen, cat #: 15140-122), 10% FBS (Tissue Culture Biologics, cat #: 101), 250 μg/mL G418 (Alfa Aesar, cat #: J62671), 1 μg/mL Tetracycline (Teknova, cat #: T3320)) were detached with 0.25% trypsin-EDTA to (Invitrogen, cat #: 25200-056). Tetracycline-free treatment medium (15 mL DMEM/F12 (1:1) 1× Pen/step, with 2% FBS, Tet-system approved (Clontech, cat #: 631106) were then added to mix, transferred into a 50 ml conical tube (Falcon, cat #: 21008-918,) and spun at 1300 rpm for 5 min. Pelleted cells were then re-suspended/washed with 50 mL of 1×DPBS (Invitrogen, cat #: 14190-136) 2 times and 50 mL treatment medium twice. HepAD38 cells were then re-suspended with 10 mL of treatment medium, syringed and counted. Wells of 96-well clear bottom TC plate (Corning, cat #: 3904,) were seeded at 50,000 cells/well in 180 μL of treatment medium, and 20 μL of either 10% DMSO (Sigma, cat #: D4540) as controls or a 10× solution of test compounds in 10% DMSO in treatment media was added for a final compound concentration starting at 10 μM, and plates were incubated in 5% CO2 incubator at 37° C. for 5 days.
Subsequently viral load production was assayed by quantitative PCR (qPCR) of the HBV core sequence. PCR reaction mixture containing forward primers HBV-f 5′-CTGTGCCTTGGGTGGCTTT-3′ (IDT DNA), Reverse primers HBV-r 5′-[…]-3′ (IDT DNA), Fluorescent TaqMan™ Probes HBV-probe 5′-FAM/AGCTCCAAA/ZEN/[…]/3IABkFQ-3′ (IDT DNA), 10 μL/well of PerfeCTa® qPCR ToughMix® (Quanta Biosciences, Cat #: 95114-05K), and 6 μL/well of DEPC water (Alfa Aesar, cat #: J62087) was prepared. […] of supernatant was added to 16 μL of the reaction mixture in a qPCR plate (Applied Biosytems, Cat #: 4309849), sealed with a film (Applied Biosystems, Cat #: 4311971), centrifuged for a few seconds, and subsequently run on an Applied Biosystems VIIA7. The PCR mixture was incubated at 45° C. for 5 min, then 95° C. for 10 min, followed by 40 cycles of 10 seconds at 95° C. and 20 seconds at 60° C. Viral load was quantified against known HBV DNA standards by using ViiA™ 7 Software. Viral load in the supernatant from wells with treated cells were compared against viral load in supernatant from DMSO control wells (>3 per plate). Cell viability assay was performed with CellTiter-Glo Luminescent Cell Viability Assay (Promega, cat #: G7573) with modification. Mixed appropriate amount of CellTiter-Glo (CTG) 1×DPBS in a 1:1 ratio, added 100 uL of the mixture to each well followed completely removal of all supernatant in each well without touching cell surface. Incubated the plate at room temperature for 10 min on an orbital shaker, and then read the plate with a plate reader (TECAN M1000 or Envision). EC50 or CC50 values were calculated through curve-fitting of the four-parameter nonlinear-logistic-regression model (GraphPad Prism or Dotmatics). CC50 values were all >10 μM.

| SMILES | EC50 [nM] |
| --- | --- |
| Cn1nc(C2CC3CC4(CNC(=O)C4)CC3C2)c(C(=O)Nc2ccc(F)c(Cl)c2)c1N (stereo not shown) [HBV-AIA-039] | < 100 |
| Cn1nc(C2CC3CNCC3C2)c(C(=O)Nc2ccc(F)c(Cl)c2)c1N (stereo not shown) [AIA-006] | 500 to 10000 |
| CCC1OC[C@]2(CC3C[C@H](c4nn(C)c(N)c4C(=O)Nc4ccc(F)c(Cl)c4)C[C@@H]3C2)O1 (stereo partly shown) [AIA-255-5] | < 100 |
| Cn1nc(C2CCC(c3ccccc3)C2)c(C(=O)Nc2ccc(F)c(Cl)c2)c1N (single isomer, unassigned) [AIA-202B, 5-Amino-N-(3-chloro-4-fluorophenyl)-1-methyl-3-(3-phenylcyclopentyl)-1H-pyrazole-4-carboxamide] | < 100 |
| Cn1nc(C2CC3CC(O)(CC(=O)O)CC3C2)c(C(=O)Nc2ccc(F)c(Cl)c2)c1N (stereo not shown) [AIA-241] | < 100 |
| Cn1nc(C2CCC(c3ccccc3)C2)c(C(=O)Nc2ccc(F)c(Cl)c2)c1N (single isomer, unassigned) [AIA-202A, 5-Amino-N-(3-chloro-4-fluorophenyl)-1-methyl-3-(3-phenylcyclopentyl)-1H-pyrazole-4-carboxamide] | < 100 |
| CC(C)OCC1(O)CC2CC(c3nn(C)c(N)c3C(=O)Nc3ccc(F)c(Cl)c3)CC2C1 (single isomer, unassigned) [AIA-339-2, 5-Amino-N-(3-chloro-4-fluorophenyl)-3-(5-hydroxy-5-(isopropoxymethyl)octahydropentalen-2-yl)-1-methyl-1H-pyrazole-4-carboxamide] | 100 to 500 |
| CCOC(=O)CC1CC2CC(c3nn(C)c(N)c3C(=O)Nc3ccc(F)c(Cl)c3)CC2C1 (stereo not shown) [AIA-018] | < 100 |
| Cn1nc(C2CC3CC(C(N)=O)CC3C2)c(C(=O)Nc2ccc(F)c(Cl)c2)c1N (stereo not shown) [AIA-015] | < 100 |
| Cn1nc(C2CC(c3ccccc3)C2)c(C(=O)Nc2ccc(F)c(Cl)c2)c1N (single isomer, unassigned) [AIA-224A, 5-Amino-N-(3-chloro-4-fluorophenyl)-1-methyl-3-(3-phenylcyclobutyl)-1H-pyrazole-4-carboxamide] | < 100 |

Same assay, conditions: Hepatitis B virus, HePAD38, 120 h, 5 days, supernatant HBV DNA by qPCR, read-out: Viral Load EC50 Activity range

| SMILES | EC50 [nM] |
| --- | --- |
| CCS(=O)(=O)CC1(O)CC2CC(c3nn(C)c(N)c3C(=O)Nc3ccc(F)c(Cl)c3)CC2C1 (single isomer, unassigned) [AIA-250-1, 5-Amino-N-(3-chloro-4-fluorophenyl)-3-(5-((ethylsulfonyl)nethyl)-5-hydroxyoctahydropentalen-2-yl)-1-methyl-1H-pyrazole-4-carboxamide] | < 100 |
| COc1cc(-c2c[nH]cn2)ccc1C1CCC(c2nn(C)c(N)c2C(=O)Nc2ccc(F)c(Cl)c2)C1 (single isomer, unassigned) [AIA-366-2, 3-(3-(4-(1H-Imidazol-4-yl)-2-methoxyphenyl)cyclopentyl)-5-amino-N-(3-chloro-4-fluorophenyl)-1-methyl-1H-pyrazole-4-carboxamide] | < 100 |
| Cn1nc(C2CC3CC(O)(CS(=O)(=O)CCCN4CCNCC4=O)CC3C2)c(C(=O)Nc2ccc(F)c(Cl)c2)c1N (single isomer, unassigned) [AIA-351-a, 5-Amino-N-(3-chloro-4-fluorophenyl)-3-(5-hydroxy-5-(((3-(2-oxopiperazin-1-yl)propyl)sulfonyl)methyl)octahydropentalen-2-yl)-1-methyl-1H-pyrazole-4-carboxamide] | 500 to 10000 |
| CC[S+]([O-])C1CC2CC(c3nn(C)c(N)c3C(=O)Nc3ccc(F)c(Cl)c3)CC2C1 (stereo not shown) [AIA-075, 5-Amino-N-(3-chloro-4-fluorophenyl)-3-(5-(ethylsulfinyl)octahydropentalen-2-yl)-1-methyl-1H-pyrazole-4-carboxamide] | < 100 |
| Cn1nc(C2CC3CC(O)(CN4CCCCC4)CC3C2)c(C(=O)Nc2ccc(F)c(Cl)c2)c1N (single isomer, unassigned) [AIA-363-1, 5-Amino-N-(3-chloro-4-fluorophenyl)-3-(5-hydroxy-5-(piperidin-1-ylmethyl)octahydropentalen-2-yl)-1-methyl-1H-pyrazole-4-carboxamide] | 100 to 500 |
| CNC(=O)N1CC2CC(c3nn(C)c(N)c3C(=O)Nc3ccc(F)c(Cl)c3)CC2C1 (stereo not shown) [AIA-023, 5-(5-Amino-4-(3-chloro-4-fluorophenylcarbamoyl)-1-methyl-1H-pyrazol-3-yl)-N-methylhexahydrocyclopenta[c]pyrrole-2(1H)-carboxamide] | < 100 |
| COc1ccc([C@H]2CC[C@@H](c3nn(C)c(N)c3C(=O)Nc3ccc(F)c(Cl)c3)C2)cc1 [AIA-003-A, 5-Amino-N-(3-chloro-4-fluorophenyl)-3-((1R,3S)-3-(4-methoxyphenyl)cyclopentyl)-1-methyl-1H-pyrazole-4-carboxamide] | < 100 |
| CN1CC2CC(c3nn(C)c(N)c3C(=O)Nc3ccc(F)c(Cl)c3)CC2C1 (stereo not shown) [AIA-052, 5-Amino-N-(3-chloro-4-fluorophenyl)-1-methyl-3-(2-methyloctahydrocyclopenta [c]pyrrol-5-yl)-1H-pyrazole-4-carboxamide] | 500 to 10000 |
| Cn1nc(C2CC3CC(O)(COCC(F)(F)F)CC3C2)c(C(=O)Nc2ccc(F)c(Cl)c2)c1N (stereo not shown) [AIA-254, 5-Amino-N-(3-chloro-4-fluorophenyl)-3-((2s,5s)-5-hydroxy-5-((2,2,2-trifluoroethoxy)methyl)octahydropentalen-2-yl)-1-methyl-1H-pyrazole-4-carboxamide] | < 100 |
| Cn1nc(C2CC3CNC(=O)CC3C2)c(C(=O)Nc2ccc(F)c(Cl)c2)c1N (single isomer, unassigned) [AIA-033-A, 5-Amino-N-(3-chloro-4-fluorophenyl)-1-methyl-3-(3-oxooctahydro-1H-cyclopenta[c]pyridin-6-yl)-1H-pyrazole-4-carboxamide] | 100 to 500 |
| COc1ccc([C@@H]2CC[C@H](c3nn(C)c(N)c3C(=O)Nc3ccc(F)c(Cl)c3)C2)cc1 [AIA-003-C, 5-Amino-N-(3-chloro-4-fluorophenyl)-3-((1S,3R)-3-(4-methoxyphenyl)cyclopentyl)-1-methyl-1H-pyrazole-4-carboxamide] | 100 to 500 |
| Cn1nc(C2CC3CC(O)(CS(=O)(=O)CCCN4CCNC(=O)C4)CC3C2)c(C(=O)Nc2ccc(F)c(Cl)c2)c1N (stereo not shown) [AIA-350, 5-Amino-N-(3-chloro-4-fluorophenyl)-3-(5-hydroxy-5-(((3-(3-oxopiperazin-1-yl)propyl)sulfonyl)methyl)octahydropentalen-2-yl)-1-methyl-1H-pyrazole-4-carboxamide] | 500 to 10000 |
| CCC1OCC2(CC3CC(c4nn(C)c(N)c4C(=O)Nc4ccc(F)c(Cl)c4)CC3C2)O1 (single isomer, unassigned) [AIA-255-3, 5-Amino-N-(3-chloro-4-fluorophenyl)-3-(2′-ethylhexahydro-1H-spiro[pentalene-2,4′-[1,3]dioxolan]-5-yl)-1-methyl-1H-pyrazole-4-carboxamide] | < 100 |
| Cn1nc(C2CCC(c3ccccc3Cl)C2)c(C(=O)Nc2ccc(F)c(Cl)c2)c1N (stereo not shown) [AIA-272, 5-Amino-N-(3-chloro-4-fluorophenyl)-3-(3-(2-chlorophenyl)cyclopentyl)-1-methyl-1H-pyrazole-4-carboxamide] | < 100 |
| COc1cc(-c2c[nH]cn2)ccc1C1CCC(c2nn(C)c(N)c2C(=O)Nc2ccc(F)c(Cl)c2)C1 (stereo not shown) [AIA-366-1, 3-(3-(4-(1H-Imidazol-4-yl)-2-methoxyphenyl)cyclopentyl)-5-amino-N-(3-chloro-4-fluorophenyl)-1-methyl-1H-pyrazole-4-carboxamide] | 100 to 500 |
